Common to all, as to format: biochemical
The target in one test is T1, MmCLK1 (Mus musculus, UniProt P22518).
T1 construct: host or cells: bacteria
The test is described as follows: ADP-Glo kinase inhibition assay, CLK1. To be noted: for remaining activity at 1 µM: read-out: CLK1 % residual activity at 1 μM; for remaining activity at 10 µM: read-out: CLK1 % residual activity at 10 μM; for IC50: 10 μM ATP, duplicate, read-out: CLK1 IC50. As to the method:
(§1) Kinase enzymatic activities were assayed in 384 well plates using the ADP-GloTM assay kit (Promega, Madison, WI, USA) according to the manufacturer’s guidance. Briefly, the reactions were carried out in a final volume of 6 μL for 30 min at 30 °C in an appropriate kinase buffer (10 mM MgCl2, 1 mM EGTA, 1 mM DTT, 25 mM Tris-HCl pH 7.5, 50 μg/mL heparin), with either protein or peptide as substrate in the presence of 10 μM ATP (40 mM Tris pH 7.5, 20 mM MgCl2 and 0.1 mg/mL of BSA). Afterward, 6 μL of ADP-GloTM Kinase Reagent was added to stop the kinase reaction. After an incubation time of 50 min at room temperature (RT), 12 μL of Kinase Detection Reagent was added for 1 h at RT. The transmitted signal was measured using the Envision (Perkin Elmer, Waltham, MA, USA) microplate luminometer and expressed in relative light unit (RLU). In order to determine the half maximal inhibitory concentration (IC50), the assays were performed in duplicate in the absence or presence of increasing doses of the tested compounds. GraphPad Prism6 software (GraphPad Software, San Diego, CA, USA) was used to fit dose–response curves and to determine the IC50 values. Kinase activities are expressed in the percentage of maximal activity, i.e., measured in the absence of an inhibitor. Peptide substrates were obtained from Proteogenix (Schiltigheim, France).
(§2) The following protein kinases were analyzed in this study: CDK5/p25 (human, recombinant, expressed in bacteria) was assayed with 0.8 μg/μL of histone H1 as substrate; CDK9/CyclinT (human, recombinant, expressed by baculovirus in Sf9 insect cells) were assayed with 0.27 μg/μL of the following peptide: […], as substrate; CK1ε (human, recombinant, expressed by baculovirus in Sf9 insect cells) was assayed with 0.022 μg/μL of the following peptide: […]pAYSITA (“Sp” stands for phosphorylated serine) as CK1-specific substrate; GSK3β (human, recombinant, expressed by baculovirus in Sf9 insect cells) were assayed with 0.010 μg/μL of GS-1 peptide, a GSK-3-selective substrate ([…]pEDEEE); Haspin-kd (human, kinase domain, amino acids 470–798, recombinant, expressed in bacteria) was assayed with 0.007 μg/μL of histone H3 (1–21) peptide ([…]) as substrate; Pim-1 (human proto-oncogene, recombinant, expressed in bacteria) was assayed with 0.8 μg/μL of histone H1 as substrate; MmCLK1 (from Mus musculus, recombinant, expressed in bacteria) was assayed with 0.027 μg/μL of the following peptide: […] as substrate; RnDYRK1A-kd (Rattus norvegicus, amino acids 1–499 including the kinase domain, recombinant, expressed in bacteria, DNA vector kindly provided by Dr. W. Becker, Aachen, Germany) was assayed with 0.033 μg/μL of the following peptide: […] as substrate.

A further test addresses T2, CDK9/CyclinT (Homo sapiens, UniProt P50750).
T2 construct: host or cells: Sf9 insect cells (baculovirus)
The experiment in a line: ADP-Glo kinase inhibition assay, CDK9/CyclinT. To be noted: for remaining activity at 1 µM: read-out: CDK9 % residual activity at 1 μM; for remaining activity at 10 µM: read-out: CDK9 % residual activity at 10 μM; for IC50: 10 μM ATP, duplicate. As to the method:
as §1, §2
A general note: ADP-Glo turns the ADP formed in a reaction into a luminescent signal.

The target in another test is T3, RnDYRK1A-kd (Rattus norvegicus, UniProt Q63470).
T3 construct: RnDYRK1A-kd (Rattus norvegicus, amino acids 1–499 including the kinase domain, recombinant, expressed in bacteria); made in house; host or cells: bacteria
The test is described as follows: ADP-Glo kinase inhibition assay, DYRK1A. The settings on record: for remaining activity at 1 µM: read-out: DYRK1A % residual activity at 1 μM; for remaining activity at 10 µM: read-out: DYRK1A % residual activity at 10 μM; for IC50: 10 μM ATP, duplicate, read-out: DYRK1A IC50. As to the method:
as §1, §2

In another test the target is T4, CK1ε (Homo sapiens, UniProt P49674).
T4 construct: host or cells: Sf9 insect cells (baculovirus)
The test is described as follows: ADP-Glo kinase inhibition assay, CK1ε. To be noted: 10 μM ATP, duplicate; for remaining activity at 1 µM: 1 μM compound, read-out: CK1 % residual activity at 1 μM; for remaining activity at 10 µM: 10 μM compound, read-out: CK1 % residual activity at 10 μM. As to the method:
as §1, §2

The target of another test is T5, GSK3β (Homo sapiens, UniProt P49841).
T5 construct: host or cells: Sf9 insect cells (baculovirus)
The test is described as follows: ADP-Glo kinase inhibition assay, GSK3β. To be noted: for remaining activity at 1 µM: read-out: GSK3 % residual activity at 1 μM; for remaining activity at 10 µM: read-out: GSK3 % residual activity at 10 μM. As to the method:
as §1, §2

The next test deals with T6, Pim-1 (Homo sapiens, UniProt P11309).
T6 construct: host or cells: bacteria
The test is described as follows: ADP-Glo kinase inhibition assay, Pim-1. The settings on record: 10 μM ATP, duplicate; for remaining activity at 1 µM: 1 μM compound, read-out: PIM1 % residual activity at 1 μM; for remaining activity at 10 µM: 10 μM compound, read-out: PIM1 % residual activity at 10 μM. As to the method:
as §1, §2

Test [1] addresses T7, Haspin-kd (human, kinase domain, amino acids 470–798) (Homo sapiens, UniProt Q8TF76).
T7 construct: Haspin-kd (human, kinase domain, amino acids 470–798, recombinant, expressed in bacteria); host or cells: bacteria
T7 sequence (Q8TF76 470-798): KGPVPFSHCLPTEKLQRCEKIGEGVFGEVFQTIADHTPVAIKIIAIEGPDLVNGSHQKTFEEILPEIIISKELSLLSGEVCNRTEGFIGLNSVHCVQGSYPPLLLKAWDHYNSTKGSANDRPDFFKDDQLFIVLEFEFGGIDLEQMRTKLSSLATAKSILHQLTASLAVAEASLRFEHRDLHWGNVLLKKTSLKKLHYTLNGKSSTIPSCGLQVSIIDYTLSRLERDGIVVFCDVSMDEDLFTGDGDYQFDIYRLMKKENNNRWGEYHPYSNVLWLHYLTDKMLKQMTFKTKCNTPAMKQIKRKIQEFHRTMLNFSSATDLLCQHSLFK
The test is described as follows: ADP-Glo kinase inhibition assay, Haspin. To be noted: for remaining activity at 1 µM: read-out: Haspin % residual activity at 1 μM; for remaining activity at 10 µM: read-out: Haspin % residual activity at 10 μM; for IC50: 10 μM ATP, duplicate. As for the experimental part: as §1

The target of a further test is T8, CDK5/p25 (Homo sapiens, UniProt Q00535).
T8 construct: host or cells: bacteria
The test is described as follows: ADP-Glo kinase inhibition assay, CDK5/p25. To be noted: for remaining activity at 1 µM: read-out: CDK5 % residual activity at 1 μM; for remaining activity at 10 µM: read-out: CDK5 % residual activity at 10 μM. As to the method:
as §1, §2

T5 sequence (P49841 whole entry): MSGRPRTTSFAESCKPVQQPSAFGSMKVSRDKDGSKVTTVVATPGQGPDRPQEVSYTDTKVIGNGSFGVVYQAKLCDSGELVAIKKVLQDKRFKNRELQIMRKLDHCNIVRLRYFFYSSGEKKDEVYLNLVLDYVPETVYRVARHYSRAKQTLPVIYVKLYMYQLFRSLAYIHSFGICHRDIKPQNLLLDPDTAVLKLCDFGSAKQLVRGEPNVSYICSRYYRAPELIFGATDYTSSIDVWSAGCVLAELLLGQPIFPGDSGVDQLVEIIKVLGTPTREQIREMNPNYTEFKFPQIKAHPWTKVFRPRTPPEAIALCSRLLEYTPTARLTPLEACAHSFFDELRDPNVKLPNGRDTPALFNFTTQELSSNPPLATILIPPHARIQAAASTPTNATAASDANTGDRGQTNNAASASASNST
T6 sequence (P11309 whole entry): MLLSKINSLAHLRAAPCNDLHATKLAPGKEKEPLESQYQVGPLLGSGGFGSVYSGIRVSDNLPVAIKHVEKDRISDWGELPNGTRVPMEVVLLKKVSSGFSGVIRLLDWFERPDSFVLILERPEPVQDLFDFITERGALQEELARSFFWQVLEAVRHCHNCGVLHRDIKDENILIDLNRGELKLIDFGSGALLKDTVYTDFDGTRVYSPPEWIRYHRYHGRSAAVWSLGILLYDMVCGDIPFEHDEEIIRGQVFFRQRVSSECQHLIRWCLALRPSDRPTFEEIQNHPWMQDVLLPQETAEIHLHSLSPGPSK
T2 sequence (O60563 whole entry): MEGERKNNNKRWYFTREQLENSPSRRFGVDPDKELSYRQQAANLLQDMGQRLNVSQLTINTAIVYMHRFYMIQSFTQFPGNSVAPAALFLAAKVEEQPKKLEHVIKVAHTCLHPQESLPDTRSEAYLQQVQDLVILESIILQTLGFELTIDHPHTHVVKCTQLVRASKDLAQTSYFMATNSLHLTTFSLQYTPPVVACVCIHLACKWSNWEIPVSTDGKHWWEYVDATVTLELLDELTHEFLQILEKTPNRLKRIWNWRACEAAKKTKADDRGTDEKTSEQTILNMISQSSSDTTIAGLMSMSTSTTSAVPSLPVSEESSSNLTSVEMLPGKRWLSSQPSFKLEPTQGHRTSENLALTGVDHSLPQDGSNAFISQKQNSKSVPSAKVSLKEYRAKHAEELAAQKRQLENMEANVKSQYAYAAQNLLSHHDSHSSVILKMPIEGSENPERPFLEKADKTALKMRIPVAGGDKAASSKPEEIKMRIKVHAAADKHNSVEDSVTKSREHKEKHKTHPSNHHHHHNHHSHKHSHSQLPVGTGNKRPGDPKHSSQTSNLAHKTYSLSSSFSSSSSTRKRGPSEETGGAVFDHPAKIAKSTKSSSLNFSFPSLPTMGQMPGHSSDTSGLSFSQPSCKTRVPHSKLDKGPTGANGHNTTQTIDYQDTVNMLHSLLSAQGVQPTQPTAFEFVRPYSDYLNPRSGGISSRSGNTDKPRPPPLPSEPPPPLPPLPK
T2 sequence (P50750 whole entry): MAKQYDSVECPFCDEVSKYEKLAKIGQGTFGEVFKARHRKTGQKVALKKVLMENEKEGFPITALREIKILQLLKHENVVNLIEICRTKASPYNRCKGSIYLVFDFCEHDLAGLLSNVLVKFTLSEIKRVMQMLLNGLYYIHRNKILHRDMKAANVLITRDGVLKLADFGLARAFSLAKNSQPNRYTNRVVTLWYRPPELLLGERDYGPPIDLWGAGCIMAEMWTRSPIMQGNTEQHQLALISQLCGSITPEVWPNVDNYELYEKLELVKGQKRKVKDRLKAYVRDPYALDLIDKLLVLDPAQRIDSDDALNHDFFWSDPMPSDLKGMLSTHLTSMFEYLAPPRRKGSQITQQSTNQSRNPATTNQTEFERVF
T8 sequence (Q00535 whole entry): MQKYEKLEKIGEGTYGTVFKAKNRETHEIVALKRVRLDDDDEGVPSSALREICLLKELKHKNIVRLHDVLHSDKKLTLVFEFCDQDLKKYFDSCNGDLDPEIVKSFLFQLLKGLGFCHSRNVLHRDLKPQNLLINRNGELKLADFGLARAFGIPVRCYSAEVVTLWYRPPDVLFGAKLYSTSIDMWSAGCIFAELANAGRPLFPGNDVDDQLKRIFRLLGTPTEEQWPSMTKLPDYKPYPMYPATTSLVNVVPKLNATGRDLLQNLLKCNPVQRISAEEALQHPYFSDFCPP
T8 sequence (Q15078 99-307, further chain): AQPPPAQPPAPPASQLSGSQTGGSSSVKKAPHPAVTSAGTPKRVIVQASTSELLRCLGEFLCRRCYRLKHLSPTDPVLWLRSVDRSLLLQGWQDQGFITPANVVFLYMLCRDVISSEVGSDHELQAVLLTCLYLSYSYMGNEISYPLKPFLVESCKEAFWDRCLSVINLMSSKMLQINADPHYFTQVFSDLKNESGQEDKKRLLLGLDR
T4 sequence (P49674 whole entry): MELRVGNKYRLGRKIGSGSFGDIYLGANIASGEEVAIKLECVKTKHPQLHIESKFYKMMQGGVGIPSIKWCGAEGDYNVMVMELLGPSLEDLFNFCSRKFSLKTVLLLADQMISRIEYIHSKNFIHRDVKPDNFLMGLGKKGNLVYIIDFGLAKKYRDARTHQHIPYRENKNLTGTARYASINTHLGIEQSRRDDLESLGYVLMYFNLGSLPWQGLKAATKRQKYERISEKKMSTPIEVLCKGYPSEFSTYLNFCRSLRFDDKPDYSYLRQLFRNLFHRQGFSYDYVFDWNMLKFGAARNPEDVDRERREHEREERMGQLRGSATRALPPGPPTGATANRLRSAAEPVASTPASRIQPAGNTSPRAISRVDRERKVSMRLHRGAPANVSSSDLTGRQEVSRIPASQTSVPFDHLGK
T1 sequence (P22518 whole entry): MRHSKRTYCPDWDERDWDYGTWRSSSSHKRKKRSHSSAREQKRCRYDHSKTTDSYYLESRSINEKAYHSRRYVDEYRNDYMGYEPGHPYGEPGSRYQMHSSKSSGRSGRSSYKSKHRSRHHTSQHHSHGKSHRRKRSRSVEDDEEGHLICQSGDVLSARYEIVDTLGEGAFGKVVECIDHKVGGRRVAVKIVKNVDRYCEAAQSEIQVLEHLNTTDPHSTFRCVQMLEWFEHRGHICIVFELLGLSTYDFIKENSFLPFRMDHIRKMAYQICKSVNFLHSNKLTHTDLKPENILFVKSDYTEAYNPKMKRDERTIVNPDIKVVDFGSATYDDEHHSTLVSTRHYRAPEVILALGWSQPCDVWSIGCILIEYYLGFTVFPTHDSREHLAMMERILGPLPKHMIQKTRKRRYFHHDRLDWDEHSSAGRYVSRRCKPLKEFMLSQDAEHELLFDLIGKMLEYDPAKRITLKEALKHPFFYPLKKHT

Turning to `CCCCc1c2cnccc2c([N+](=O)[O-])c2c1cnn2CC` [Compound 3e, 4-Butyl-1-ethyl-9-nitro-1H-pyrazolo[3,4-g]isoquinoline], the remaining activity at 1 µM at MmCLK1 was 58%; at CDK9/CyclinT it was 33%; at RnDYRK1A-kd it was 72%; at CK1ε, 100%; at GSK3β, 39%; on Pim-1, 78%. Further, the remaining activity at 1 µM in test [1] is 78%; on CDK5/p25, 82%. For the same compound, the remaining activity at 10 µM at MmCLK1 was determined as 16%; on CDK9/CyclinT it was 10%; on RnDYRK1A-kd it was 16%; on CK1ε it was 60%; on GSK3β it was 10%; on Pim-1, 35%. Further, the remaining activity at 10 µM in test [1] was determined as 19%; on CDK5/p25, 57%.
As for `Cn1ncc2cc3cnccc3c([N+](=O)[O-])c21` [Compound 1b, 1-Methyl-9-nitro-1H-pyrazolo[3,4-g]isoquinoline], the half-maximal inhibitory concentration (IC50) (as a rule, the concentration that gives 50% inhibition) on MmCLK1 was found to be 71 nM; on RnDYRK1A-kd it was 681 nM; in test [1], 57 nM. Further, the remaining activity at 1 µM at MmCLK1 was determined as 42%; at CDK9/CyclinT, 57%; at RnDYRK1A-kd, 41%; at CK1ε it was 88%; at GSK3β, 73%; on Pim-1, 100%. Also, the remaining activity at 1 µM in test [1] came out at 26%; on CDK5/p25, 95%. Also, the remaining activity at 10 µM worked out at 10% on MmCLK1; 35% at CDK9/CyclinT; 11% on RnDYRK1A-kd; 53% on CK1ε; 33% on GSK3β; 54% on Pim-1. In addition, the remaining activity at 10 µM in test [1] was determined as 9%; at CDK5/p25, 43%.
For the compound `CCn1ncc2cc3cnccc3c(N)c21` [Compound 2c, 1-Ethyl-1H-pyrazolo[3,4-g]isoquinolin-9-amine], the IC50 was 564 nM at MmCLK1, 250 nM at RnDYRK1A-kd and 62 nM in test [1]. In addition, the remaining activity at 1 µM on MmCLK1 is 34%; at CDK9/CyclinT, 80%; on RnDYRK1A-kd, 23%; at CK1ε, 84%; at GSK3β, 82%; on Pim-1 it was 91%. In addition, the figures for the remaining activity at 1 µM (in test [1]; on CDK5/p25) were 17% and 65%, respectively. In addition, the remaining activity at 10 µM at MmCLK1 was 8%; on CDK9/CyclinT, 50%; at RnDYRK1A-kd, 6%; at CK1ε, 48%; on GSK3β, 40%; on Pim-1, 60%. Further, the figures for the remaining activity at 10 µM (in test [1]; on CDK5/p25) were 3% and 28%, respectively. Also, the “Selectivity Index (SI) Haspin vs. DYRK1A” value in test [1] (Haspin vs. DYRK1A, which was more inhibited than CLK1) is 4.0.
In the case of `CCn1ncc2c(C)c3cnccc3c([N+](=O)[O-])c21` [Compound 3a, 1-Ethyl-4-methyl-9-nitro-1H-pyrazolo[3,4-g]isoquinoline], the half-inhibitory concentration (IC50) on MmCLK1 is 101 nM; at CDK9/CyclinT, 789 nM; on GSK3β (10 μM ATP, duplicate, read-out: GSK3 IC50) it was 1080 nM; in test [1], 167 nM. Besides, the remaining activity at 1 µM is 13% on MmCLK1; 43% at CDK9/CyclinT; 73% at RnDYRK1A-kd; 89% at CK1ε; 39% at GSK3β; 100% on Pim-1. In addition, the remaining activity at 1 µM in test [1] worked out at 20%; at CDK5/p25, 64%. Moreover, the remaining activity at 10 µM at MmCLK1 worked out at 0%; at CDK9/CyclinT it was 14%; at RnDYRK1A-kd it was 13%; at CK1ε, 45%; at GSK3β, 9%; at Pim-1, 97%. In addition, the remaining activity at 10 µM in test [1] was determined as 8%; on CDK5/p25, 35%.
For `CCn1ncc2cc3cnccc3c([N+](=O)[O-])c21` [Compound 1c, 1-Ethyl-9-nitro-1H-pyrazolo[3,4-g]isoquinoline], the half-inhibitory concentration (IC50) worked out at 166 nM on MmCLK1, 428 nM at CDK9/CyclinT, 1110 nM on RnDYRK1A-kd and 66 nM in test [1]. Also, the remaining activity at 1 µM is 25% on MmCLK1; 46% at CDK9/CyclinT; 44% on RnDYRK1A-kd; 90% on CK1ε; 53% at GSK3β; 100% on Pim-1. Moreover, the remaining activity at 1 µM worked out at 38% in test [1] and 94% at CDK5/p25. For the same compound, the remaining activity at 10 µM at MmCLK1 came out at 6%; on CDK9/CyclinT, 23%; at RnDYRK1A-kd, 18%; on CK1ε, 58%; at GSK3β it was 19%; on Pim-1 it was 70%. Also, the remaining activity at 10 µM in test [1] came to 15%; on CDK5/p25 it was 79%.
